From patent US20250051275A1, “PYRROLE DERIVATIVE OR PHARMACEUTICALLY OR SITOLOGICALLY ACCEPTABLE SALTS THEREOF, AND COMPOSITION FOR PREVENTION, AMELIORATION OR TREATMENT OF GASTROINTESTINAL DISORDERS COMPRISING SAME AS ACTIVE INGREDIENT” (HANA PHARM CO., LTD., priority 2021, published 2025)
Read-outs that look alike come from different tables or passages of the source.

Columns and labels:
[1] = Storage stability (related substance identification test); type: physicochemical; conditions: for storage stability: stored at −2 to 8° C., in % (unit assumed)
Excerpt: An attempt was made to evaluate the storage stability over time of the compound of Example 7 of the present invention and the compound of Comparative Example 1 (which is the deuterium-unsubstituted form of the compound of Example 7) depending on the presence of deuterium substitution.

[2] = system: Human gastric cancer cells (MKN-45 Cell); experiment: Anticancer efficacy in xenograft mouse model; type: in vivo, nude mice; conditions: 10 mg/kg oral once/day, Day 12, MKN-45 xenograft
Method: This study was conducted to evaluate the anticancer efficacy of the compound of Example 15 of the present invention in a xenograft tumor model. Human gastric cancer cells (MKN-45 Cell) were purchased from the Korea Cell Line Bank and cultured in a 5% CO2 incubator at 37° C. by using an RPMI 1640 medium containing 1% penicillin-streptomycin and 10% fetal bovine serum. The cultured cells were separated using 0.25% Trypsin-0.02% EDTA every 3 to 4 days and then subcultured. Cells. Four-week-old female nude mice were purchased, and after a one-week acclimatization period in a laboratory environment, the nude mice that reached 5 weeks of age were used in the experiment. MKN-45 cells were made into a single cell suspension by using Matrigel and DPBS, and implanted subcutaneously into nude mice at a concentration of 1×10^7 cells per mouse. One week after MKN-45 cell transplantation, experimental animals with tumors with a specific size were selected and divided into 3 groups with 10 animals per group. The compound of Example 7 was administered orally at administration concentrations of 10 mg/kg and 30 mg/kg, and the experiment was conducted for 12 days.
The size of the tumor was calculated using the formula ‘short axis×short axis×long axis/2,’ and the results of the changes in tumor size change are illustrated in FIG. 2.

[3] = system: pH of gastric juice; experiment: Pharmacodynamic profile (pH of gastric juice) in beagles after histamine; type: in vivo, beagle dogs; conditions: beagle
Method: (§1) A total of 18 male beagle dogs (Marshall Beagle, Beijing) with an average weight of 9 to 11 kg were obtained, acclimatized, and distributed into a total of 6 groups, 3 dogs per test group. During the entire experiment, all beagle dogs were supplied with standardized solid food and water. The breeding room was kept under controlled and monitored conditions, while maintaining a temperature of 18° C. to 26° C., a humidity of 40% to 70%, and a light-dark cycle of 12 hours-12 hours.
(§2) The test group consisted of beagle dogs that were orally administered the vehicle as the vehicle group, beagle dogs that were orally administered control drug 1 (vonoprazan) as the comparison group, and administration group was beagle dogs orally administered with Example 7.
To measure the neutralizing power of gastric acid for drug efficacy evaluation, each dose of the compound was administered to each group. Then, histamine dihydrochloride at 0.03 mg/kg was administered subcutaneously 1, 3, 6, 24, and 48 hours after compound administration. The pH of the gastric juice was measured 0, 2.5, 4.5, 7.5, 25.5, and 49.5 hours after compound administration.

[4] = Pharmacokinetic profile in beagles, single oral dose; type: in vivo, beagle dogs; conditions: male, dog, plasma, beagle, mean n=3
Method: as §1, §2
Blood samples were obtained from peripheral veins at 30 minutes, 1 hour, 2.5 hours, 4.5 hours, 7.5 hours, 25.5 hours, and 49.5 hours after drug administration, respectively. Blood samples were centrifuged (2 to […], 3,200 g, 10 minutes) to obtain plasma. The amount of the administered compound into the plasma samples was quantified by using LC-MS/MS. Pharmacokinetic parameters were obtained by using a non-compartmental model in Phoenix WinNonlin 6.3 software. ‘AUC0-last’ indicates the area under the time curve, ‘Cmax’ indicates the highest plasma concentration, ‘ Tmax’ indicates the time to reach the highest plasma concentration, and ‘T1/2’ indicates the half-life.

[5] = system: human gastric cancer cells (AGS Cells); experiment: MTS assay, inhibition of proliferation of human gastric cancer cells (AGS Cells); type: cell-based; conditions: Homo sapiens, 48 hours
Method: To examine the effect of inhibiting the proliferation of the compounds indicated in the examples of the present invention on human gastric cancer cells (AGS Cells), MTS Assay experiments were in vitro performed. AGS cells were cultured in a 5% CO2 incubator at 37° C. by using RPMI 1640 medium containing 1% penicillin-streptomycin and 10% fetal bovine serum. The cells in culture were separated with using 0.25% Trypsin-0.02% EDTA every 3 to 4 days and subcultured.
For the experiment, the cultured cells were treated with 0.25% Trypsin-0.02% EDTA solution, the suspended cells were centrifuged at 1,200 rpm for 5 minutes, the supernatant was discarded, a culture medium was added thereto, and a cell suspension was made with the culture medium. Using a hemocytometer, 10,000 cells per well were dispensed into 96-well plates and cultured. After 24 hours, when the cells attached to the plate, the culture medium was discarded, and the cells were treated with new culture media prepared by concentration (test concentrations: 500 μm, 250 μm, 125 μm, 63 μm, 31 μm, 16 μm, 8 μm, 4 μm, and 2 μm) and cultured in a CO2 incubator for 48 hours. After treating with an MTS solution, the cells were incubated in a CO2 incubator for 1 hour, and the absorbance was measured at 490 nm by using a microplate reader device. The cell proliferation inhibition rate was expressed as IC50, which is 50% inhibition of cell proliferation, using GraphPad Prism 5.
In Table 2 below, the IC50 value is indicated as “+++” for 0 to 50 μM, “++” for 51 to 100 μM, and “+” for 101 to 400 μM.

## [2H]C([2H])([2H])NCc1cc(-c2ccccc2F)n(S(=O)(=O)c2ccc(F)cc2)c1 [Example 7, N-((5-(2-fluorophenyl)-1-((4-fluorophenyl)sulfonyl)-1H-pyrrol-3-yl)methyl)methan-d3-amine]
[1]; stored at −2 to 8° C. for 3 months
  storage stability, Results: Stable
[1]; 1st week
  storage stability: 98.33
[1]; 2nd week
  storage stability: 98.11
[1]; 3 months
  storage stability: 98.9
[1]; 3rd week
  storage stability: 98.11
[1]; 4th week
  storage stability: 98.20
[1]; Initial
  storage stability: 98.38
[2]
  tumor size reduced as compared to the Control group (vehicle): 42%
[3]; oral 0.1 mg/kg, 0 h
  Average pH of gastric juice: 6.8
[3]; oral 0.1 mg/kg, 2.5 h
  Average pH of gastric juice: 3.3
[3]; oral 0.1 mg/kg, 4.5 h
  Average pH of gastric juice: 6.5
[3]; oral 0.1 mg/kg, 7.5 h
  Average pH of gastric juice: 6.0
[3]; oral 0.1 mg/kg, 25.5 h
  Average pH of gastric juice: 2.7
[3]; oral 0.1 mg/kg, 49.5 h
  Average pH of gastric juice: 2.4
[3]; oral 0.3 mg/kg, 0 h
  Average pH of gastric juice: 7.2
[3]; oral 0.3 mg/kg, 2.5 h
  Average pH of gastric juice: 6.7
[3]; oral 0.3 mg/kg, 4.5 h
  Average pH of gastric juice: 7.0
[3]; oral 0.3 mg/kg, 7.5 h
  Average pH of gastric juice: 6.5
[3]; oral 0.3 mg/kg, 25.5 h
  Average pH of gastric juice: 2.3
[3]; oral 0.3 mg/kg, 49.5 h
  Average pH of gastric juice: 2.8
[3]; oral 1 mg/kg, 0 h
  Average pH of gastric juice: 5.7
[3]; oral 1 mg/kg, 2.5 h
  Average pH of gastric juice: 7.2
[3]; oral 1 mg/kg, 4.5 h
  Average pH of gastric juice: 6.7
[3]; oral 1 mg/kg, 7.5 h
  Average pH of gastric juice: 6.2
[3]; oral 1 mg/kg, 25.5 h
  Average pH of gastric juice: 3.0
[3]; oral 1 mg/kg, 49.5 h
  Average pH of gastric juice: 2.3
[3]; oral 3 mg/kg, 0 h
  Average pH of gastric juice: 6.0
[3]; oral 3 mg/kg, 2.5 h
  Average pH of gastric juice: 7.3
[3]; oral 3 mg/kg, 4.5 h
  Average pH of gastric juice: 7.0
[3]; oral 3 mg/kg, 7.5 h
  Average pH of gastric juice: 6.3
[3]; oral 3 mg/kg, 25.5 h
  Average pH of gastric juice: 6.2
[3]; oral 3 mg/kg, 49.5 h
  Average pH of gastric juice: 3.0
[4]; oral single dose 0.1 mg/kg
  AUC(0-t): 99.4 ng·h/mL
  Cmax: 32.3 ng/mL
  Tmax: 0.833 h
  half-life: 1.67 h
[4]; oral single dose 0.3 mg/kg
  AUC(0-t): 808 ng·h/mL
  Cmax: 165 ng/mL
  Tmax: 1 h
  half-life: 2.93 h
[4]; oral single dose 1 mg/kg
  AUC(0-t): 2890 ng·h/mL
  Cmax: 397 ng/mL
  Tmax: 1 h
  half-life: 3.03 h
[4]; oral single dose 3 mg/kg
  AUC(0-t): 19200 ng·h/mL
  Cmax: 1430 ng/mL
  Tmax: 2.17 h
  half-life: 4.29 h
[5]; read-out: Proliferation inhibitory effect of gastric cancer cells (IC50)
  IC50: 35.3 µM
[5]; read-out: Proliferation inhibitory effect of gastric cancer cells (IC50, μM), class symbol
  IC50: < 50 µM
